Patent EP2340020B1, “MANGANESE AND COBALT COMPLEXES, THEIR PREPARATION AND USE” (GP Investimenti S.r.l., priority 2008, dated 2010)

How the values were obtained:
xanthine oxidase enzyme = test: Uric acid levels in the xanthine/xanthine oxidase system (check for enzyme inhibition); format: biochemical
Description: (§1) In vitro, the xanthine oxidase enzyme metabolises the xanthine substrate and generates uric acid and O2 as products of the reaction, which can be measured spectrophotometrically by oxidation of the NBT chromogen.

O2^- = O2^- scavenging in a cell-free system (xanthine/xanthine oxidase), NBT oxidation; format: biochemical; details: compound at 10^-5 M; baseline 294±12 sec.; p<0.01
Description: as §1

[1] = tested on: rat aorta smooth muscle cells (RASM); test: Protection from oxidative stress: MDA levels, O2^- generated by fMLP-stimulated RAW 264.7 macrophages; format: cell-based; details: RAW 264.7 macrophages stimulated with fMLP; comparable with, or even greater than SOD
Experimental: (§2) The primary targets of the cytotoxic action of ROS are the membrane lipids, which are peroxidised with the formation of malondialdehyde (MDA). This can be measured spectrophotometrically using the chromogen that is generated from the reaction of MDA with thiobarbituric acid. This measurement is consequently a reliable indicator of ROS-induced cell damage.
(§3) Cultures of rat aorta smooth muscle cells (RASM) were prepared in a medium in which O2^- was generated both by means of the xanthine oxidase/xanthine enzymatic system and by RAW 264.7 macrophages stimulation with fMLP (see the two diagrams shown below, respectively).

[2] = tested on: rat aorta smooth muscle cells (RASM); test: Protection from oxidative stress: MDA levels, O2^- generated by xanthine oxidase/xanthine; format: cell-based; details: xanthine oxidase/xanthine system; comparable with, or even greater than SOD
Experimental: as §2, §3

[3] = tested on: fMLP-stimulated RAW 264.7 macrophages; test: O2^- scavenging in cultures of fMLP-stimulated macrophages, Fe(II)cytC oxidation; format: cell-based
Description: The chemotactic peptide fMLP triggers a specific inflammatory activation of the macrophages, which produce high levels of O2^-, that are measurable spectrophotometrically by means of the oxidation of the Fe(II)cytC chromogen.

RAW 264.7 macrophages = test: Toxicity: viability of macrophage cultures; format: cell-based
Experimental: The viability of the cultures of RAW 264.7 macrophages was measured at various intervals (24, 48, 72 h) after adding increasing concentrations of the compound of Example 2 (10^-7 M- 10^-4 M).

xanthine oxidase enzyme, sequence (P47989 whole entry, species assumed): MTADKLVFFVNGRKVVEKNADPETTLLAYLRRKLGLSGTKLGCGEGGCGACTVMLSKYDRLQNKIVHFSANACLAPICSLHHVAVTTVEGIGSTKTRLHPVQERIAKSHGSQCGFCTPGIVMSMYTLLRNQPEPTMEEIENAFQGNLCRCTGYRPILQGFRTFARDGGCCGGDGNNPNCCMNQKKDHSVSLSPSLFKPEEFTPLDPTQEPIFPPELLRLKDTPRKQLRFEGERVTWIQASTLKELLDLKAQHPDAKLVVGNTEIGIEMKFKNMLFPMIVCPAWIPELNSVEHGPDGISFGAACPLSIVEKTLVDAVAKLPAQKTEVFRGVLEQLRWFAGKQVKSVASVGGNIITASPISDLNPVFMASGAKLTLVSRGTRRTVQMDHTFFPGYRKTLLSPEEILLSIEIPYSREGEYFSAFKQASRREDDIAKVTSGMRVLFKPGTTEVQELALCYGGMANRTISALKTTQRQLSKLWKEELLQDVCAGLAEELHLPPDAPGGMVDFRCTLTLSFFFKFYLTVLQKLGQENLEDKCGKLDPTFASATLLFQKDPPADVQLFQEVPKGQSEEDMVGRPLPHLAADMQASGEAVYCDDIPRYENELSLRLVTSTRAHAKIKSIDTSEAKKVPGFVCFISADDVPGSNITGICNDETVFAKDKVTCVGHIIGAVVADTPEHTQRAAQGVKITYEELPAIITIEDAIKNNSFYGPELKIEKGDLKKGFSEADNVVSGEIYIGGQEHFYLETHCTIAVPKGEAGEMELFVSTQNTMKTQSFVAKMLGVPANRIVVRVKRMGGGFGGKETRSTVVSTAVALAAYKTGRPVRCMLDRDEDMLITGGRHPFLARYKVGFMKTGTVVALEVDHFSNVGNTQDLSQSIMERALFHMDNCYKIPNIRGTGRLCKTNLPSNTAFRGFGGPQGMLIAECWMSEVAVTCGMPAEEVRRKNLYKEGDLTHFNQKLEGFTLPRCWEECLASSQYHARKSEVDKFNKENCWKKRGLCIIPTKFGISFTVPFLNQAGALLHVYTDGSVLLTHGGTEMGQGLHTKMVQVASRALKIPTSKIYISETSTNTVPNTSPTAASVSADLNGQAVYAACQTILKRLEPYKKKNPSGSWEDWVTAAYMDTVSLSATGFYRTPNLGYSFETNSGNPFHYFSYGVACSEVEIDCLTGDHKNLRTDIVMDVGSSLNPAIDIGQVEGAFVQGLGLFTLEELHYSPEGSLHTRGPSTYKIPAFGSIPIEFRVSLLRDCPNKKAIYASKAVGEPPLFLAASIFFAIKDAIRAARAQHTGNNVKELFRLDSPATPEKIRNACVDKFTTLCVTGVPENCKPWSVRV

Mn(4,10-dimethyl-1,4,7,10-tetraazacyclododecane-1,7-diacetate) 2H2O) [Example 2]
levels of uric acid (xanthine oxidase enzyme): does not reduce the levels of uric acid | time taken to oxidise 50% of the NBT (O2^-): 390 ± 16 s | levels of MDA in the RASM cells [1]: significantly reduced | levels of MDA in the RASM cells [2]: significantly reduced | levels of oxidised Fe(II)cytC ([3]; 10^-9-10^-6 M): dose-dependent, significant reduction | activity when pre-incubated and then removed from the cell cultures before adding the activating stimulus ([3]; pre-incubation, removal before fMLP): remains active | IC50 ([3]; reduction of O2^- generated by fMLP-activated macrophages, read-out: 50% inhibiting concentration (IC50%)): 60 nM | cytotoxicity (viability of the cultures) (RAW 264.7 macrophages; 10^-7 M-10^-4 M, 24, 48, 72 h, effect only after 72 hours and at 10^-5-10^-4 M): mildly cytotoxic only after incubation times of 72 hours and at the greatest concentrations | cell toxicity at active concentrations (RAW 264.7 macrophages; concentrations of the order of 0.1 milligrams/litre): no cell toxicity

MnSO4 [reference compound]
effectiveness in reducing O2^- levels generated by fMLP-activated macrophages ([3]; Figure 2): entirely ineffective
